Test results as given in patent publication US9676782B2, “Substituted pyrazolo[1,5-a]pyrazines as negative allosteric modulators of metabotropic glutamate receptor 3” (Vanderbilt University, priority 2014, dated 2017).
Read-outs that look alike come from different tables or passages of the source.

How the values were obtained:
rat mGlu5 = rat mGlu5 (Rattus norvegicus (Rat), UniProt P31424); experiment: mGlu5 Ca2+ flux assay; format: cell-based; settings: for Fold selectivity (mGlu3 vs. mGlu5): ratio of rat mGlu5 EC50 or IC50 to rat mGlu3 IC50; for EC50: read-out: rat mGlu5 EC50 or IC50; for Emax at 30 µM: PAM, amplitude of response at 30 μM test compound as % of maximal response to glutamate, read-out: rat mGlu5 Glu max (%)
Method: (§1) The cells were grown overnight at 37° C. in the presence of 5% CO2. […] Dye was removed, 20 μL of assay buffer was added, and the plate was incubated for 5 minutes at room temperature. Ca^2+ flux was measured using the Functional Drug Screening System (FDSS7000, Hamamatsu, Japan). […] All test compounds were dissolved and diluted to a concentration of 10 mM in 100% DMSO. […] Calcium fluorescence measures were recorded as fold over basal fluorescence; raw data was then normalized to the maximal response to glutamate. […] The raw data file containing all time points was used as the data source in the analysis template. This was saved by the FDSS as a tab-delimited text file. Data were normalized using a static ratio function (F/F0) for each measurement of the total 360 values per well divided by each well's initial value. […] This is sufficient time to capture the peak amplitude of the cellular calcium response. […] EC50 values for test compounds were generated by fitting the normalized values versus the log of the test compound concentration (in mol/L) using a 4 parameter logistic equation where none of the parameters were fixed. Each of the three values collected at each concentration of test compound were weighted evenly.

rat mGlu3 = rat mGlu3 (Rattus norvegicus (Rat), UniProt P31422); experiment: mGlu3 Ca2+ flux assay; format: cell-based; settings: for remaining activity at 30 µM: amplitude of response at 30 μM test compound as % of maximal response to glutamate, read-out: rat mGlu3 Glu max (%)
Method: as §1, with “for 10” for “for 5”

[1] = NAM potency, decrease of glutamate EC80 response, >30,000 = no measurable activity, >10,000 = no plateau, read-out: rat mGlu3 IC50

Sequence of rat mGlu5 (P31424 21-1203): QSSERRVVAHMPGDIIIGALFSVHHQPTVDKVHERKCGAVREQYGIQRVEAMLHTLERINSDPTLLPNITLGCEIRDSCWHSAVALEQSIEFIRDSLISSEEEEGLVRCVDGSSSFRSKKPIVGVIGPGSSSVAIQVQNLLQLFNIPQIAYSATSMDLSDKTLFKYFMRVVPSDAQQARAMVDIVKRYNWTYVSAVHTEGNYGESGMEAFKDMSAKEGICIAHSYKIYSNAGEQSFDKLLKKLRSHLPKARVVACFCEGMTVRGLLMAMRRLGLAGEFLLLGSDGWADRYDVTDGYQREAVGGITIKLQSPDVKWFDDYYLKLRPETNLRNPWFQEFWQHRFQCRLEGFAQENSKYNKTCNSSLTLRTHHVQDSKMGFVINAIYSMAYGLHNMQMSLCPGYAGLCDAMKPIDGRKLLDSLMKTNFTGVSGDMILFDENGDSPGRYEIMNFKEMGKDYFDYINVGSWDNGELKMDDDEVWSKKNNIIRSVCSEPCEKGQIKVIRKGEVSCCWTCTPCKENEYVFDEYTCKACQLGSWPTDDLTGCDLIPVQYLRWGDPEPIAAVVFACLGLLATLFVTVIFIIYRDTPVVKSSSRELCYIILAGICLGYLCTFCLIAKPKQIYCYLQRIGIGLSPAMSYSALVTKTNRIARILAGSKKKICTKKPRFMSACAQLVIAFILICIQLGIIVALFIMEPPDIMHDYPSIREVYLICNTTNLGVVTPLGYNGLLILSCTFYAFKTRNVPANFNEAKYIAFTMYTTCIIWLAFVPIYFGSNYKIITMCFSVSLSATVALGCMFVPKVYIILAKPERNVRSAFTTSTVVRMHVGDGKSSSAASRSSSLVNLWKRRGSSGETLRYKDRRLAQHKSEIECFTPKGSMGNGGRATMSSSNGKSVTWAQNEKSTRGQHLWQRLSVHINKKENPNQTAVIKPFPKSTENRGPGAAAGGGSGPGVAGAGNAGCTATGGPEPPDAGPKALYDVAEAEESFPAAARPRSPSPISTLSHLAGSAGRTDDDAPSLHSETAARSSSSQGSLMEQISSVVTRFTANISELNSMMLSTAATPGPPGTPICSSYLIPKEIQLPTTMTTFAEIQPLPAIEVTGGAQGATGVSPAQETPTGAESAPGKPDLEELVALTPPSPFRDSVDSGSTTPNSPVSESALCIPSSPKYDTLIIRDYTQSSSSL
Sequence of rat mGlu3 (P31422 23-879): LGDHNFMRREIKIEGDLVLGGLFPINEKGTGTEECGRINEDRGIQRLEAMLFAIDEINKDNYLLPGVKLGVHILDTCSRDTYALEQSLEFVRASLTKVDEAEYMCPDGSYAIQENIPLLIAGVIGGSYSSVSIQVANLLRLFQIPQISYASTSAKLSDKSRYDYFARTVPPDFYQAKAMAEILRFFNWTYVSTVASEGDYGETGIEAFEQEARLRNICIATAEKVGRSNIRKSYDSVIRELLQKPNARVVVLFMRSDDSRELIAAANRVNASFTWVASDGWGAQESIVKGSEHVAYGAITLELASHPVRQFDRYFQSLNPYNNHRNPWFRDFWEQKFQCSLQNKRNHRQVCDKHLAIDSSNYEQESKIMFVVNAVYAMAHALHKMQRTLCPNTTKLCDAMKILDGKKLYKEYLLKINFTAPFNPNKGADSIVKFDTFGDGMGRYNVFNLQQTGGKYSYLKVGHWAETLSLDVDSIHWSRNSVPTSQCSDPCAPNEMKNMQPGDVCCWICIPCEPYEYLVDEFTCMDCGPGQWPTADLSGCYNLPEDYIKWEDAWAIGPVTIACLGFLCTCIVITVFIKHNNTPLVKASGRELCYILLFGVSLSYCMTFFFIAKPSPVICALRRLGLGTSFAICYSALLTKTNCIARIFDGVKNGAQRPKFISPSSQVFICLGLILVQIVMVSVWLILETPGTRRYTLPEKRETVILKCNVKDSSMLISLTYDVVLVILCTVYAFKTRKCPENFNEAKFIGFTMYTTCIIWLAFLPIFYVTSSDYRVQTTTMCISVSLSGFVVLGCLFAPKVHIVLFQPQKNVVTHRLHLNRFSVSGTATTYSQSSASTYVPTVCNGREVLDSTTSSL

SMILES | Fold selectivity (mGlu3 vs. mGlu5) (rat mGlu5) | EC50 (rat mGlu5) [µM] | remaining activity at 30 µM (rat mGlu3) [%] | Emax at 30 µM (rat mGlu5) [%] | IC50 (rat mGlu3; [1]) [µM] | IC50 (rat mGlu3; read-out: rat mGlu3 IC50) [µM] | IC50 (rat mGlu3; Table 2 compounds with X = NH, read-out: mGlu3 IC50) [µM] | mGlu3 Glu max (rat mGlu3; Table 2 compounds with X = NH, response at 30 μM compound as percentage of maximal glutamate response) [%]
COc1ccc(NCc2cc3n(n2)CCN(c2ccc(F)c(F)c2)C3=O)cc1 [Compound 1, 5-(3,4-Difluorophenyl)-2-(((4-methoxyphenyl)amino)methyl)-6,7-dihydropyrazolo[1,5-a]pyrazin-4(5H)-one] | >20 | > 30 | 4.04 |  |  |  |  | 
O=C1c2cc(CNc3ccccc3)nn2CCN1c1ccc(F)cc1 [Compound 2, 5-(4-fluorophenyl)-2-((phenylamino)methyl)-6,7-dihydropyrazolo[1,5-a]pyrazin-4(5H)-one] | 1.55 | 2.04 | 1.99 | 98.3 | 1.32 |  |  | 
O=C1c2cc(CNc3ccccc3F)nn2CCN1c1ccc(F)cc1 [Compound 3, 5-(4-fluorophenyl)-2-(((2-fluorophenyl)amino)methyl)-6,7-dihydropyrazolo[1,5-a]pyrazin-4(5H)-one] | 2.62 | 2.47 | 1.73 | 95.7 | 0.944 |  |  | 
Cc1ccccc1NCc1cc2n(n1)CCN(c1ccc(F)cc1)C2=O [Compound 4, 5-(4-fluorophenyl)-2-((o-tolylamino)methyl)-6,7-dihydropyrazolo[1,5-a]pyrazin-4(5H)-one] | >4.1 | > 10 | 2.62 | 42.2 | 2.39 |  |  | 
O=C1c2cc(CNc3ccccc3Cl)nn2CCN1c1ccc(F)cc1 [Compound 5, 2-(((2-chlorophenyl)amino)methyl)-5-(4-fluorophenyl)-6,7-dihydropyrazolo[1,5-a]pyrazin-4(5H)-one] | 1.72 | 2.19 | 2.08 | 65.4 | 1.27 |  |  | 
COc1ccccc1NCc1cc2n(n1)CCN(c1ccc(F)cc1)C2=O [Compound 6, 5-(4-fluorophenyl)-2-(((2-methoxyphenyl)amino)methyl)-6,7-dihydropyrazolo[1,5-a]pyrazin-4(5H)-one] | >9.8 | > 30 | 0.98 |  | 3.04 |  |  | 
O=C1c2cc(CNc3cccc(F)c3)nn2CCN1c1ccc(F)cc1 [Compound 7, 5-(4-fluorophenyl)-2-(((3-fluorophenyl)amino)methyl)-6,7-dihydropyrazolo[1,5-a]pyrazin-4(5H)-one] | 2.13 | 2.21 | 1.28 | 99 | 1.04 |  |  | 
Cc1cccc(NCc2cc3n(n2)CCN(c2ccc(F)cc2)C3=O)c1 [Compound 8, 5-(4-fluorophenyl)-2-((m-tolylamino)methyl)-6,7-dihydropyrazolo[1,5-a]pyrazin-4(5H)-one] | 4.41 | 5.96 | 2.85 | 79.4 | 1.35 |  |  | 
O=C1c2cc(CNc3cccc(Cl)c3)nn2CCN1c1ccc(F)cc1 [Compound 9, 2-(((3-chlorophenyl)amino)methyl)-5-(4-fluorophenyl)-6,7-dihydropyrazolo[1,5-a]pyrazin-4(5H)-one] | 2.74 | 3.32 | 2.95 | 82.8 | 1.21 |  |  | 
COc1cccc(NCc2cc3n(n2)CCN(c2ccc(F)cc2)C3=O)c1 [Compound 10, 5-(4-fluorophenyl)-2-(((3-methoxyphenyl)amino)methyl)-6,7-dihydropyrazolo[1,5-a]pyrazin-4(5H)-one] | >16 | > 30 | 2.01 |  | 1.78 |  |  | 
N#Cc1cccc(NCc2cc3n(n2)CCN(c2ccc(F)cc2)C3=O)c1 [Compound 11, 3-(((5-(4-fluorophenyl)-4-oxo-4,5,6,7-tetrahydropyrazolo[1,5-a]pyrazin-2-yl)methyl)amino)benzonitrile] | >24 | > 30 | 1.48 |  | 1.25 |  |  | 
O=C1c2cc(CNc3cccc(OC(F)F)c3)nn2CCN1c1ccc(F)cc1 [Compound 12, 2-(((3-(difluoromethoxy)phenyl)amino)methyl)-5-(4-fluorophenyl)-6,7-dihydropyrazolo[1,5-a]pyrazin-4(5H)-one] | 14.51 | 7.33 | 1.31 | 85.6 | 0.505 |  |  | 
O=C1c2cc(CNc3ccc(F)cc3)nn2CCN1c1ccc(F)cc1 [Compound 13, 5-(4-fluorophenyl)-2-(((4-fluorophenyl)amino)methyl)-6,7-dihydropyrazolo[1,5-a]pyrazin-4(5H)-one] | 2.83 | 3.26 | 2.22 | 56.6 | 1.15 |  |  | 
Cc1ccc(NCc2cc3n(n2)CCN(c2ccc(F)cc2)C3=O)cc1 [Compound 14, 5-(4-fluorophenyl)-2-((p-tolylamino)methyl)-6,7-dihydropyrazolo[1,5-a]pyrazin-4(5H)-one] | >19 | > 30 | -11.8 |  | 1.54 |  |  | 
O=C1c2cc(CNc3ccc(Br)cc3)nn2CCN1c1ccc(F)cc1 [Compound 16, 2-(((4-bromophenyl)amino)methyl)-5-(4-fluorophenyl)-6,7-dihydropyrazolo[1,5-a]pyrazin-4(5H)-one] |  |  |  |  |  | > 30 |  | 
COc1ccc(NCc2cc3n(n2)CCN(c2ccc(F)cc2)C3=O)cc1 [Compound 17, 5-(4-fluorophenyl)-2-(((4-methoxyphenyl)amino)methyl)-6,7-dihydropyrazolo[1,5-a]pyrazin-4(5H)-one] | >14 | > 30 | 1.55 |  | 2.12 |  |  | 
N#Cc1ccc(NCc2cc3n(n2)CCN(c2ccc(F)cc2)C3=O)cc1 [Compound 18, 4-(((5-(4-fluorophenyl)-4-oxo-4,5,6,7-tetrahydropyrazolo[1,5-a]pyrazin-2-yl)methyl)amino)benzonitrile] | >6.2 | > 30 | 1.71 |  | 4.78 |  |  | 
O=C1c2cc(CNc3ccc(C(F)(F)F)cc3)nn2CCN1c1ccc(F)cc1 [Compound 19, 5-(4-fluorophenyl)-2-(((4-(trifluoromethyl)phenyl)amino)methyl)-6,7-dihydropyrazolo[1,5-a]pyrazin-4(5H)-one] |  | > 30 |  |  |  | > 30 |  | 
O=C1c2cc(CNc3ccc(OC(F)F)cc3)nn2CCN1c1ccc(F)cc1 [Compound 20, 2-(((4-(difluoromethoxy)phenyl)amino)methyl)-5-(4-fluorophenyl)-6,7-dihydropyrazolo[1,5-a]pyrazin-4(5H)-one] | >42 | > 30 | 2.9 |  | 0.709 |  |  | 
O=C1c2cc(CNc3ccc(OC(F)(F)F)cc3)nn2CCN1c1ccc(F)cc1 [Compound 21, 5-(4-fluorophenyl)-2-(((4-(trifluoromethoxy)phenyl)amino)methyl)-6,7-dihydropyrazolo[1,5-a]pyrazin-4(5H)-one] | >3 | > 30 | 13.3 |  |  | > 10 |  | 
CCc1ccc(NCc2cc3n(n2)CCN(c2ccc(F)cc2)C3=O)cc1 [Compound 22, 2-(((4-ethylphenyl)amino)methyl)-5-(4-fluorophenyl)-6,7-dihydropyrazolo[1,5-a]pyrazin-4(5H)-one] | >19 | > 30 | -11 |  | 1.55 |  |  | 
CC(C)(C)c1ccc(NCc2cc3n(n2)CCN(c2ccc(F)cc2)C3=O)cc1 [Compound 24, 2-(((4-(tert-butyl)phenyl)amino)methyl)-5-(4-fluorophenyl)-6,7-dihydropyrazolo[1,5-a]pyrazin-4(5H)-one] |  |  |  |  |  | > 30 |  | 
O=C1c2cc(CNc3ccc(F)cc3)nn2CCN1c1ccc(F)cc1 [drawing 32 X = NH] |  |  |  |  |  |  | 1.15 | 2
